Among the data in patent US8227478B2, “JNK modulators” (Roche Palo Alto LLC, priority 2008, dated 2012) are IC50 and melting point values, retold here.

The subject of one series is phospho-c-Jun. The series can be described thus: Phospho-c-Jun translocation assay in TNFα-activated SW1353 cells. Type of series: cell-based. The note with it: Homo sapiens, TNFα 1 ng/ml for 20 min, 30 min compound pre-incubation. An excerpt:
Inflammation is regulated in part by the action of c-Jun on other genes in the inflammatory pathway. Thus, inhibition of phosphorylated c-Jun translocation to the nucleus provides an indication of the anti-inflammatory activity of a compound. SW1353 cells were purchased from the American Tissue Culture Collection and maintained in growth media containing DMEM medium (Invitrogen) with 10% fetal bovine serum (Invitrogen), ascorbic acid (Sigma), and penicillin/streptomycin/[…] (Invitrogen) under culture conditions (at 37° C. with 5% CO2). Cells were plated at a density of 8,000 cells/well in 100 μl growth medium 24 h prior to the compound treatment. Immediately before the compound treatment, growth media was replaced with 90 μl of fresh media. Compound stock at 10 mM was first diluted in compound vehicle (DMSO) to 3 mM, then diluted in serum-free medium and added to each well as a 10× concentrated solution in a volume of 10 μl, mixed, and pre-incubated with cells for 30 min at 37° C. in 5% CO2. Compound vehicle (DMSO) was maintained at a final concentration of 1% for all samples. After 30 min incubation, the cells were activated with TNFα (1 ng/ml, Roche Biochem) for 20 min. Cells were then fixed, permeabilized, and stained with anti-phospho-c-Jun antibody (Santa Cruz), followed by Alexa Fluor 488 labeled secondary antibody and Hoechet 33342 dye (Invitrogen) per manufacturer's instructions. The signals of phospho-c-Jun were measured for 400 cells per well by the ArrayScan HCS system (Cellomic). The IC50 values were calculated as the concentration of the compound at which the phospho-c-Jun activity was inhibited to 50% of the control value using the 4-parameter fitting function in the ActivityBase program (IDBS).

For the next series, the target named is Human JNK2α2 (Homo sapiens, UniProt P45984). The series can be described thus: JNK assay in vitro, phosphorylation of GST-ATF2 (19-96) with [γ-33P] ATP. Type of series: biochemical. As to conditions: Human JNK2α2, 1 nM enzyme, 1 μM ATF2, 8 μM ATP (Km); read-out: JNK2 - IC50. The procedure:
(§1) JNK activity was measured by phosphorylation of GST-ATF2 (19-96) with [γ-^33P] ATP. The enzyme reaction was conducted at Km concentrations of ATP and the substrate at final volume of 40 μl in buffer containing 25 mM HEPES, pH 7.5, 2 mM dithiothreitol, 150 mM NaCl, 20 mM MgCl2, 0.001% Tween® 20, 0.1% BSA and 10% DMSO. Human JNK2α2 assay contains 1 nM enzyme, 1 μM ATF2, 8 μM ATP with 1 uCi [γ-^33P] ATP. Human JNK1α1 assay contains 2 nM enzyme, 1 μM ATF2, 6 μM ATP with 1 μCi [γ-^33P] ATP. Human JNK3 (Upstate Biotech #14-501M) assay contains 2 nM enzyme, 1 μM ATF2, 4 μM ATP with 1 μCi [γ-^33P] ATP. The enzyme assay was carried out in the presence or absence of several compound concentrations. JNK and compound were pre-incubated for 10 min., followed by initiation of the enzymatic reaction by adding ATP and the substrate. The reaction mixture was incubated at 30° C. for 30 min. At the end of incubation, the reaction was terminated by transferring 25 μl of the reaction mixture to 150 μl of 10% glutathione Sepharose® slurry (Amersham #27-4574-01) containing 135 mM EDTA. The reaction product was captured on the affinity resin, and washed on a filtration plate (Millipore, MABVNOB50) with phosphate buffered saline for six times to remove free radionucleotide. The incorporation of ^33P into ATF2 was quantified on a microplate scintillation counter (Packard Topcount). Compound inhibition potency on JNK was measured by IC50 value generated from ten concentration inhibition curves fitted into the 3-parameter model: % inhibition=Maximum/(1+(IC50/[Inhibitor])^slope). Data were analyzed on Microsoft Excel for parameter estimation.

For a further series, the target named is Human JNK1α1 (Homo sapiens, UniProt P45983). Described as above. Type of series: biochemical. As to conditions: Human JNK1α1, 2 nM enzyme, 1 μM ATF2, 6 μM ATP (Km); read-out: JNK1 - IC50. As for the experimental part: as §1
Sequence of Human JNK1α1 (P45983 1-384 isoform P45983-2): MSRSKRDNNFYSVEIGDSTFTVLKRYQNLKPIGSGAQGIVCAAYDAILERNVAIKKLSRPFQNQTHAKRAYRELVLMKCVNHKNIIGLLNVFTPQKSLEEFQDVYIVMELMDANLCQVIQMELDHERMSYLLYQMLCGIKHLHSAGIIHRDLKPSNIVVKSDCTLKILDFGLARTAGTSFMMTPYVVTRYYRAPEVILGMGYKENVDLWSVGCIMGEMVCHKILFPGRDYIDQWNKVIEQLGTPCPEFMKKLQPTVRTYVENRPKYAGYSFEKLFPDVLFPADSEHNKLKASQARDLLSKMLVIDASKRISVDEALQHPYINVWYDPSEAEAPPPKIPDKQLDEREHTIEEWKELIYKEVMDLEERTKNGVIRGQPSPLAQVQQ

SMILES strings stand for the structures. Values joined by “and” are separate entries in the source; they are usually repeats but may differ in a detail not shown here. Equal values may be shown once.

Sequence of Human JNK2α2 (P45984 whole entry): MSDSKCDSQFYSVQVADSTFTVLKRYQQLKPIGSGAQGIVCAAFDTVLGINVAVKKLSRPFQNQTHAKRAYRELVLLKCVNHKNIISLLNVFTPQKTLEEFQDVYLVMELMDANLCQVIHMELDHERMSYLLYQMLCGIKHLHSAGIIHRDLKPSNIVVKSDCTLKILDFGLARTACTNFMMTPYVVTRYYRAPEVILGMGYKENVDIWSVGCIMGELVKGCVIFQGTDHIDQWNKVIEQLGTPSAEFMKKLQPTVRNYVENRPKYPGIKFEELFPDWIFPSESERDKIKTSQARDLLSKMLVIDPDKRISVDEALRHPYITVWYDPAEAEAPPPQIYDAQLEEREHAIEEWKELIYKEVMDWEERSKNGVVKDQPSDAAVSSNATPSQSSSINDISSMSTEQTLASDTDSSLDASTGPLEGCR

Regarding `Cc1noc(C)c1-c1cccc2c1nnn2-c1ccnc(N[C@H]2CC[C@H](C(=O)N3CCC(O)CC3)CC2)n1` [Compound 4, (4-{4-[4-(3,5-Dimethylisoxazol-4-yl)-benzotriazol-1-yl]-pyrimidin-2-ylamino}-cyclohexyl)-(4-hydroxy-piperidin-1-yl)-methanone], the melting point was more than 300 °C. Also, the IC50 in the series on phospho-c-Jun is 2580 nM. For the same molecule, the IC50 at Human JNK2α2 stood at 105 nM. The IC50 on Human JNK1α1 is 43.2 nM.

The molecule `Cc1ccncc1-c1cccc2c1nnn2-c1ccnc(N[C@H]2CC[C@H](C(=O)N3CCC(O)CC3)CC2)n1` [Compound 3, (4-Hydroxy-piperidin-1-yl)-(4-{4-[4-(4-methylpyirin-3-yl)-benzotriazol-1-yl]-pyrimidin-2-ylamino}-cyclohexyl)-methanone] displayed a melting point of 194.3 to 218.2 °C. Besides, the IC50 with phospho-c-Jun is 2820 nM. Moreover, the IC50 at Human JNK2α2 amounted to 90.4 nM. At Human JNK1α1, the IC50 worked out at 27.5 nM.

`Cc1n[nH]cc1-c1cccc2c1ccn2-c1ccnc(N[C@H]2CC[C@H](C(=O)N3CCC(O)CC3)CC2)n1` [Compound 12, (4-Hydroxy-piperidin-1-yl)-(4-{4-[4-(3-methyl-1H-pyrazol-4-yl)-indol-1-yl]-pyrimidin-2-ylamino}-cyclohexyl)-methanone]: the melting point lay in the range of 215 to 220 °C. The same molecule returned an IC50 in the series with phospho-c-Jun of 2590 nM. For the same molecule, the IC50 at Human JNK2α2 stood at 121 nM. In addition, the IC50 at Human JNK1α1 stood at 31.7 nM.

For the molecule `Cc1ccccc1-c1cccc2c1nnn2-c1ccnc(N[C@H]2CC[C@H](C(=O)N3CCC(O)CC3)CC2)n1` [Compound 2, (4-Hydroxy-piperidin-1-yl)-{4-[4-(4-o-tolyl-benzotriazol-1-yl)-pyrimidin-2-ylamino]-cyclohexyl}-methanone], the melting point was 224 to 226 °C and 224.6 to 225.9 °C. For the same molecule, the IC50 in the series with phospho-c-Jun is 678 nM. Further, on Human JNK2α2, the IC50 was 19.9 nM. Besides, the IC50 on Human JNK1α1 was determined as 5.8 nM.

Turning to `Cc1n[nH]cc1-c1cccc2c1nnn2-c1ccnc(N[C@H]2CC[C@H](C(=O)N3CCC(O)CC3)CC2)n1` [Compound 11, (4-Hydroxy-piperidin-1-yl)-(4-{4-[4-(3-methyl-1H-pyrazol-4-yl)-benzotriazol-1-yl]-pyrimidin-2-ylamino}-cyclohexyl)-methanone], the IC50 was 434 nM in the series on phospho-c-Jun, 18.6 nM at Human JNK2α2 and 5.2 nM on Human JNK1α1.

Molecule `O=C([C@H]1CC[C@H](Nc2nccc(-n3ccc4c(-c5ccccc5)cccc43)n2)CC1)N1CCC(O)CC1` [Compound 17, (4-Hydroxy-piperidin-1-yl)-{4-[4-(4-phenyl-indol-1-yl)-pyrimidin-2-ylamino]-cyclohexyl}-methanone] came in with a melting point of 190 to 191 °C. For the same molecule, the IC50 on Human JNK2α2 turned out to be 856 nM. On Human JNK1α1, the IC50 turned out to be 262 nM.

Molecule `O=C([C@H]1CC[C@H](Nc2nccc(-n3nnc4c(-c5ccsc5)cccc43)n2)CC1)N1CCC(O)CC1` [Compound 6, (4-Hydroxy-piperidin-1-yl)-{4-[4-(4-thiophen-3-ylbenzotriazol-1-yl)-pyrimidin-2-ylamino]-cyclohexyl}-methanone] had a melting point of 233 to 234 °C. In the series on phospho-c-Jun, this molecule gave an IC50 of 3300 nM. Also, on Human JNK2α2, the IC50 amounted to 67.8 nM. In addition, the IC50 at Human JNK1α1 is 20.3 nM.

Regarding `Cc1cscc1-c1cccc2c1nnn2-c1ccnc(N[C@H]2CC[C@H](C(=O)N3CCC(O)CC3)CC2)n1` [Compound 1], the melting point lay in the range of 246 to 247 °C. In the series on phospho-c-Jun, this molecule yielded an IC50 of 703 nM. The IC50 at Human JNK2α2 worked out at 12.7 nM. The IC50 on Human JNK1α1 was found to be 2.8 nM.

Turning to `O=C([C@H]1CC[C@H](Nc2nccc(-n3ccc4c(-c5ccncc5)cccc43)n2)CC1)N1CCC(O)CC1` [Compound 16, (4-Hydroxy-piperidin-1-yl)-{4-[4-(4-pyridin-4-yl-indol-1-yl)-pyrimidin-2-ylamino]-cyclohexyl}-methanone], the melting point was in the range of 258 to 259 °C. This molecule had an IC50 in the series with phospho-c-Jun of 2520 nM. In addition, the IC50 at Human JNK2α2 is 175 nM. Also, the IC50 on Human JNK1α1 worked out at 44 nM.

In the case of `Cc1cscc1-c1cccc2c1nnn2-c1ccnc(NC2CCN(S(C)(=O)=O)CC2)n1` [Compound 5, (1-Methanesulfonyl-piperidin-4-yl)-{4-[4-(4-methyl-thiophen-3-yl)-benzotriazol-1-yl]-pyrimidin-2-yl}-amine], the values for the IC50 in the series with phospho-c-Jun, on Human JNK2α2 and at Human JNK1α1 were 13900 nM, 17.8 nM and 3.6 nM, respectively.

In turn, `Cc1cscc1-c1cccc2c1ccn2-c1ccnc(N[C@H]2CC[C@H](C(=O)N3CCC(O)CC3)CC2)n1` [Compound 7, (4-Hydroxy-piperidin-1-yl)-(4-{4-[4-(4-methyl-thiophen-3-yl)-indol-1-yl]-pyrimidin-2-ylamino}-cyclohexyl)-methanone] showed a melting point of 168 to 188 °C. The IC50 in the series on phospho-c-Jun was 8370 nM. In addition, at Human JNK2α2, the IC50 was 98.7 nM. The IC50 on Human JNK1α1 was 33.1 nM.

Consider `Cc1ccncc1-c1cccc2c1ccn2-c1ccnc(N[C@H]2CC[C@H](C(=O)N3CCC(O)CC3)CC2)n1` [Compound 14, (4-Hydroxy-piperidin-1-yl)-(4-{4-[4-(4-methyl-pyridin-3-yl)-indol-1-yl]-pyrimidin-2-ylamino}-cyclohexyl)-methanone], for which the melting point is 176 to 178 °C. In addition, at Human JNK2α2, the IC50 turned out to be 341 nM. Also, at Human JNK1α1, the 50% inhibitory concentration (IC50) came out at 87.7 nM.

Molecule `O=C([C@H]1CC[C@H](Nc2nccc(-n3ccc4c(-c5ccsc5)cccc43)n2)CC1)N1CCC(O)CC1` [Compound 18, (4-hydroxy-piperidin-1-yl)-{4-[4-(4-thiophen-3-yl-indol-1-yl)-pyrimidin-2-ylamino]-cyclohexyl}-methanone] had a melting point of 171 to 172 °C. For the same molecule, the IC50 on Human JNK2α2 turned out to be 189 nM. Also, the IC50 at Human JNK1α1 turned out to be 47.9 nM.

Molecule `O=C([C@H]1CC[C@H](Nc2nccc(-n3nnc4c(-c5ccncc5)cccc43)n2)CC1)N1CCC(O)CC1` [Compound 8] came in with a melting point of 266 to 267 °C. For the same molecule, inhibition in the series with phospho-c-Jun was half-maximal at 5810 nM (IC50). Also, the IC50 on Human JNK2α2 was found to be 91.2 nM. Further, the IC50 at Human JNK1α1 was determined as 28.7 nM.

Regarding `O=C([C@H]1CC[C@H](Nc2nccc(-n3nnc4c(-c5ccoc5)cccc43)n2)CC1)N1CCC(O)CC1` [Compound 9, {4-[4-(4-Furan-3-yl-benzotriazol-1-yl)-pyrimidin-2-ylamino]-cyclohexyl}-(4-hydroxy-piperidin-1-yl)-methanone], the melting point is 243 to 244 °C. Moreover, in the series with phospho-c-Jun, the IC50 was not below 30000 nM. The IC50 on Human JNK2α2 stood at 130 nM. Besides, on Human JNK1α1, the IC50 was determined as 39.7 nM.

As for `Cc1noc(C)c1-c1cccc2c1ccn2-c1ccnc(N[C@H]2CC[C@H](C(=O)N3CCC(O)CC3)CC2)n1` [Compound 13, (4-{4-[4-(3,5-Dimethyl-isoxazol-4-yl)-indol-1-yl]-pyrimidin-2-ylamino}-cyclohexyl)-(4-hydroxy-piperidin-1-yl)-methanone], the IC50 was determined as 225 nM on Human JNK2α2 and 48.4 nM at Human JNK1α1.

Molecule `Cc1ccccc1-c1cccc2c1ccn2-c1ccnc(N[C@H]2CC[C@H](C(=O)N3CCC(O)CC3)CC2)n1` [Compound 15, (4-Hydroxy-piperidin-1-yl)-{4-[4-(4-o-tolyl-indol-1-yl)-pyrimidin-2-ylamino]-cyclohexyl}-methanone] came in with a melting point of 158 to 160 °C. Further, the IC50 on Human JNK2α2 came to 220 nM. Moreover, the IC50 on Human JNK1α1 turned out to be 64.7 nM.

One may read the IC50 as the midpoint of a concentration-inhibition curve. In general, melting point refers to the temperature of the solid-liquid transition.
